Measurements published in ChEMBL document CHEMBL1152913, “Discovery of 4-azaindoles as novel inhibitors of c-Met kinase” (Bioorg Med Chem Lett, 2009).
Each block holds one compound with its values, some of them ahead of it. Active and inactive are the calls of the source. The calls are words filed in the database; no cut-off is given here.

How the values were obtained:
[1] = molecular target: T1, Hepatocyte growth factor receptor (Homo sapiens, UniProt P08581)
Description: (§1) Inhibition of human recombinant His-tagged c-Met by TR-FRET assay

[2] = molecular target: T1, Hepatocyte growth factor receptor; experiment: Inhibition of c-Met phosphorylation in human MKN45 cells after 1 hr; format: cell-based, MKN-45
[3] = molecular target: RAC-alpha serine/threonine-protein kinase (Homo sapiens) (UniProt P31749); experiment: Inhibition of AKT phosphorylation in human MKN45 cells after 1 hr by Western blot analysis; format: cell-based; conditions: MKN-45
[4] = molecular target: Vascular endothelial growth factor receptor 2 (Homo sapiens) (UniProt P35968); experiment: Inhibition of KDR assessed as residual activity at 20 uM
[5] = molecular target: Mitogen-activated protein kinase 1 (Homo sapiens) (UniProt P28482); experiment: Inhibition of ERK2 assessed as residual activity at 20 uM
[6] = molecular target: T2, Tyrosine-protein kinase Mer (Homo sapiens) (UniProt Q12866); experiment: Inhibition of Mer assessed as residual activity at 20 uM
T2 sequence (whole entry): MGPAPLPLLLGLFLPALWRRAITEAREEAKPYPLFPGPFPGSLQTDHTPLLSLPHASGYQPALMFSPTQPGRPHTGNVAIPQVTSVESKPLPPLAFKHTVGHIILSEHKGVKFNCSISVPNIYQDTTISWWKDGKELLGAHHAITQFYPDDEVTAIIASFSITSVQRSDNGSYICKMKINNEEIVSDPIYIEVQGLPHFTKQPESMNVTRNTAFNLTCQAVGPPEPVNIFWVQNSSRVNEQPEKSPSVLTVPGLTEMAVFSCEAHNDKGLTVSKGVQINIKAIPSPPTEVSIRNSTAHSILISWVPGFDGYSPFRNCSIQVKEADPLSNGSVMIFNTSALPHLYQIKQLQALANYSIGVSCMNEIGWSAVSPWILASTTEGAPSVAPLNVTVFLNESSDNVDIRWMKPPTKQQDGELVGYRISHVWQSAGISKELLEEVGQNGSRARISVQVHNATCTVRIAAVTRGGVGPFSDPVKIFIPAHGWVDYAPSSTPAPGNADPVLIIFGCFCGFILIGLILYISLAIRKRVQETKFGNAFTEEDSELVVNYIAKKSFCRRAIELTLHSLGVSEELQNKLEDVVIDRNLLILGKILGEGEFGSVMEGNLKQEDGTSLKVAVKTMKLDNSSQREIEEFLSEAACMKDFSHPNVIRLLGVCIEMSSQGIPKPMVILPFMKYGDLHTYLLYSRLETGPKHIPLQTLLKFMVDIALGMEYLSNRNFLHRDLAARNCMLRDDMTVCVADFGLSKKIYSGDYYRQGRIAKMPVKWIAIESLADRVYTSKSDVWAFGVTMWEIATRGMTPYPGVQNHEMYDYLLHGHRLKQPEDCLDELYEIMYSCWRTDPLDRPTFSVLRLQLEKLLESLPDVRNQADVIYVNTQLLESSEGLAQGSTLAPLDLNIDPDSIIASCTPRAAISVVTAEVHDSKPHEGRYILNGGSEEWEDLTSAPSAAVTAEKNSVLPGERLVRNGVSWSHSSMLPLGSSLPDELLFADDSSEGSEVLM

[7] = molecular target: High affinity nerve growth factor receptor (Homo sapiens) (UniProt P04629); experiment: Inhibition of TrkA assessed as residual activity at 20 uM
[8] = molecular target: RAC-alpha serine/threonine-protein kinase (Homo sapiens) (UniProt P31749); experiment: Inhibition of AKT assessed as residual activity at 20 uM
[9] = molecular target: Mitogen-activated protein kinase 3 (Homo sapiens) (UniProt P27361); experiment: Inhibition of ERK1 phosphorylation in human MKN45 cells after 1 hr by Western blot analysis; format: cell-based; conditions: MKN-45
[10] = molecular target: Mitogen-activated protein kinase 3 (Homo sapiens) (UniProt P27361); experiment: Inhibition of ERK1 assessed as residual activity at 20 uM
[11] = molecular target: Mitogen-activated protein kinase 1 (Homo sapiens) (UniProt P28482); experiment: Inhibition of ERK2 phosphorylation in human MKN45 cells after 1 hr by Western blot analysis; format: cell-based; conditions: MKN-45
[12] = molecular target: Macrophage-stimulating protein receptor (Homo sapiens) (UniProt Q04912); experiment: Inhibition of Ron assessed as residual activity at 20 uM
[13] = molecular target: T1, Hepatocyte growth factor receptor; remark: listed apart in the source
Description: as §1

[14] = molecular target: T1, Hepatocyte growth factor receptor; experiment: Inhibition of c-Met phosphorylation in human A549 cells after 1 hr; format: cell-based
[15] = molecular target: T1, Hepatocyte growth factor receptor; experiment: Inhibition of human recombinant His-tagged c-Met at 20 uM by TR-FRET assay
Hepatocyte = experiment: Clearance rate in hepatocytes; format: ADME, cell-based, Liver

SMILES: c1ccc(Cn2ccc3ncccc32)cc1
- IC50 [1]: Inactive

SMILES: O=[N+]([O-])c1ccc(S(=O)(=O)n2ccc3ncccc32)cc1
- inhibition [15]: 16%

Continued, values first:

- IC50 [2]: 0.2 µM
- inhibition [3]: Active
- Activity [4]: 3%
- inhibition [5]: inactive
- Activity [6]: 19%
- Activity [7]: 18%
- Activity [8]: 88%
- inhibition [9]: Active
- Activity [10]: 88%
- inhibition [11]: Active
- Activity [12]: 29%
- IC50 [13]: 0.009 µM
- IC50 [14]: 0.13 µM
SMILES: O=S(=O)(c1cccc2nonc12)n1ccc2ncc(-c3cnn(C4CCNCC4)c3)cc21

- CL (Hepatocyte): 0.3 s⁻¹
SMILES: O=S(=O)(c1c(Cl)nc2sccn12)n1ccc2ncc(-c3cnn(C4CCNCC4)c3)cc21

- CL (Hepatocyte): 1 s⁻¹
SMILES: O=S(=O)(c1c(Cl)nc2sccn12)n1ccc2ncc(N3CCNCC3)cc21
